Laboratory results taken from ChEMBL document CHEMBL1201862, “PubChem BioAssay data set” (2004).
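Protocol summary: plate cells (96-well), add compound at 5 concentrations, incubate 48 h, interpolate endpoints linearly. Here, GI50 denotes the concentration required for 50% inhibition of growth.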 Calls of active or inactive are those of the source. Cut-off read from the data, not from the text of the source: active = GI50 up to about 1.1 µM and inactive = higher.

What was measured:
Test in all cases: inhibition of tumour cell growth, NCI panel, 48 h
A498 = tested on: A498
COLO 205 = tested on: COLO 205
EKVX = tested on: EKVX
HCC 2998 = tested on: HCC 2998
HCT-15 = tested on: HCT-15
HOP-62 = tested on: HOP-62
HOP-92 = tested on: HOP-92
LOX IMVI = tested on: LOX IMVI
M14 = tested on: M14
MDA-MB-231 = tested on: MDA-MB-231
MDA-MB-435 = tested on: MDA-MB-435
MOLT-4 = tested on: MOLT-4
NCI-H522 = tested on: NCI-H522
OVCAR-8 = tested on: OVCAR-8
SF-268 = tested on: SF-268
SF-295 = tested on: SF-295
SK-MEL-28 = tested on: SK-MEL-28
SN12C = tested on: SN12C
SR = tested on: SR
U-251 = tested on: U-251

Compound	GI50 (A498)	GI50 (COLO 205)	GI50 (EKVX)	GI50 (HCC 2998)	GI50 (HCT-15) [µM]	GI50 (HOP-62)	GI50 (HOP-92)	GI50 (LOX IMVI)	GI50 (M14)	GI50 (MDA-MB-231)	GI50 (MDA-MB-435)	GI50 (MOLT-4)	GI50 (NCI-H522)	GI50 (OVCAR-8)	GI50 (SF-268)	GI50 (SF-295)	GI50 (SK-MEL-28)	GI50 (SN12C)	GI50 (SR)	GI50 (U-251)
C[C@H]1CC[C@]2(NC1)O[C@H]1C[C@H]3[C@@H]4CC[C@H]5C[C@@H](O[C@@H]6O[C@H](CO)[C@H](O[C@@H]7O[C@H](CO)[C@@H](O)[C@H](O[C@@H]8OC[C@@H](O)[C@H](O)[C@H]8O)[C@H]7O[C@@H]7O[C@H](CO)[C@@H](O)[C@H](O)[C@H]7O)[C@H](O)[C@H]6O)CC[C@]5(C)[C@H]4CC[C@]3(C)[C@H]1[C@@H]2C [TOMATINE]	1.87 µM (inactive)	2 µM (inactive)	0.836 µM (active)	0.993 µM (active)	2.48	1.63 µM (inactive)	1.99 µM (inactive)	2.17 µM (inactive)	1.43 µM (inactive)	1.3 µM (inactive)	1.41 µM (inactive)	2.41 µM (inactive)	1.62 µM (inactive)	2.24 µM (inactive)	1.55 µM (inactive)	1.05 µM (active)	1.26 µM (inactive)	1.43 µM (inactive)	2.42 µM (inactive)	1.02 µM (active)
C=C1CC=CC(C)(C)C1C/C=C(\C)C(O)CBr (stereo not given)	> 100 µM (inactive)	39 µM (inactive)	> 100 µM (inactive)	87.9 µM (inactive)	51.1	> 100 µM (inactive)	30.9 µM (inactive)	19.1 µM (inactive)	82.6 µM (inactive)	> 100 µM (inactive)	39.9 µM (inactive)	21.9 µM (inactive)	4.2 µM (inactive)	29.4 µM (inactive)	> 100 µM (inactive)	> 100 µM (inactive)	> 100 µM (inactive)	> 100 µM (inactive)	28 µM (inactive)	30.1 µM (inactive)
NC1=Nc2ccccc2Sc2nccn21	28.2 µM (inactive)	15.4 µM (inactive)	27.7 µM (inactive)	21 µM (inactive)	25.2	24.4 µM (inactive)	15.1 µM (inactive)	17.8 µM (inactive)	17 µM (inactive)	16.1 µM (inactive)	23.7 µM (inactive)	20.2 µM (inactive)	19.3 µM (inactive)	31.1 µM (inactive)	30.2 µM (inactive)	22.3 µM (inactive)	35.8 µM (inactive)	36.3 µM (inactive)	26.4 µM (inactive)	32.8 µM (inactive)
